Here are results for one compound from patent US20250152559A1, “METHODS FOR TREATING MYC-AMPLIFIED CANCER” (The Governing Council of the University of Toronto, priority 2023, published 2025).

SMILES strings stand for the structures. Several values for one entry are separate records, joined by “and”; a condition that tells them apart may be missing. Equal values may be shown once.

One series relates to SU_MB002 PDOX. Kind of series: Orthotopic PDOX model, tumor burden and survival. It is filed as in vivo, mice. The following applies: orthotopic SU_MB002, BAY R1. As for the experimental part:
(§1) The treatment-naïve, patient-derived cell line, HD-MB03, was orthotopically engrafted into immunocompromised mice. Four days later, tumors were readily detectible via bioluminescence imaging. Thereafter mice were randomized into three cohorts, which were treated with either the vehicle or one of two BAY treatment regimens (R1 and R2; FIG. 5B).
PDOX were generated by engrafting 25,000 tumor cells (both SU_MB002 and HD-MB03 cell lines), suspended in 5 μL PBS, directly into the mouse cerebrum. Flank xenografts were generated by engrafting 2,000,000 tumor cells suspended in a 100 μL solution of PBS/Matrigel® (1:1 v/v). For preclinical studies, cells were engineered to express enhanced firefly luciferase. […] Flank tumors were isolated at matched time points and formalin fixed for 48 hours, paraffin embedded (FFPE) and sectioned for follow-up analysis. Tumor area was manually measured in H&E-stained sections of FFPE tissues using ImageJ.
For imaging via the in vivo imaging system (IVIS), mice were sedated with isoflurane gas and then administered luciferin substrate (150 mg/kg in PBS) via subcutaneous injection. After 10 minutes, bioluminescent signal (photons per second; p/s) was quantified using Living Image software.

Series [1] relates to de novo pyrimidine biosynthesis in flank tumor tissue. Kind of series: LC-MS metabolome profiling of flank xenograft tissues of treated mice. It is filed as in vivo. Conditions: individual samples, listed as BAY. The procedure: In parallel to these experiments, subcutaneous flank xenografts were engrafted into two cohorts of mice, which were treated with the vehicle or R2. […] To investigate the pharmacokinetics of BAY in vivo, its concentration in plasma and brain tissues of healthy mice was directly quantified using an LC-MS approach. BAY was detected in both brains and plasma of mice undergoing treatment, however the plasma concentrations exceeded those of the brain by approximately 10-fold (FIG. 5H-I). To determine whether treatment with BAY affects de novo pyrimidine biosynthesis in vivo, changes in pyrimidine metabolism were measured in the brain in comparison to tumor tissues from the flank (FIG. 5J-K). Although BAY treatment impacted de novo pyrimidine metabolism in vivo in both brain and tumor tissues, with a similar pattern observed in vitro (FIG. 4A), the effect size was stronger in peripheral tumor tissue in comparison to brain tissue. Such findings further reflect the limited capacity for BAY to accumulate within the brain.
For metabolome profiling of tissues, ˜5 mg tissue were homogenized in 225 μL of −20° C. cold, methanol using a Bullet Blender Tissue Homogenizer (NextAdvance, Inc.) Bullet for 3 min. The homogenate was vortexed for 20 s and 750 μL of −20° C. cold methyl tertiary-butyl ether (MTBE) was added, and the mixture was vortexed for 10 s and shaken at 4° C. for 5 min. Next, 188 μL room temperature water was added and vortexed for 20 s to induce phase separation. After centrifugation for 5 min at 14,000×g, the bottom polar phase was collected and dried down. Metabolite extracts were reconstituted in LC-MS grade water/acetonitrile (50:50; v:v), vortexed for 1 min, sonicated for 15 min, and centrifuged at 16,000×g and 4° C. for 15 min to remove insoluble debris.
The LC-MS metabolomics and lipidomics analyses of the 3 NSC and 3 MB cell lines and tissues were performed on a UPLC-MS system consisting of an Orbitrap IQ-X Tribrid coupled to a Horizon Vanquish UPLC system (Thermo Fisher Scientific). The lipidomics analysis was conducted in positive-ion mode with a spray voltage of 3.5 kV while the metabolomics analysis was conducted in negative-ion mode with a spray voltage of −2.5 kV. The following source conditions were identical in both analyses and were set as follows: Sheath gas flow rate, 50 arbitrary units; Aux. gas flow rate, 10 arbitrary units; Sweep gas flow rate, 1 arbitrary unit; Ion transfer tube temp., 300° C.; Vaporizer temp., 350° C. The following acquisition parameters were used for MS1 analysis in both methods: resolution, 120,000, AGC target, 4e5. The maximum IT was set at […] for the lipidomics analysis and 200 ms for the metabolomics analysis. Data-dependent MS/MS parameters for the lipidomics analyses: resolution, 30,000; AGC target, 7.5e4; maximum IT, Dynamic (54 ms); time between Master Scans, 0.6 s; isolation window, 1.0 m/z; NCE/stepped nce, 20, 30, 40; intensity threshold, 5e4; exclude isotopes, on; dynamic exclusion, 3.0 s. Data-dependent MS/MS parameters for the metabolomics analyses: resolution. 15,000; AGC target, 7.5e4; maximum IT, Dynamic (22 ms); time between Master Scans, 0.6 s; isolation window, 1.0 m/z; NCE/stepped nce, 20, 30, 40, 50; intensity threshold, 5e4; exclude isotopes, on; dynamic exclusion, 5.0 s. To increase the total number of MS/MS spectra in the lipidomics analysis, five runs with iterative MS/MS exclusions were performed using the AcquireX function in Xcalibur (Thermo Fisher Scientific). In the metabolomics analysis, three runs with iterative MS/MS exclusions were performed using the AcquireX function. For the lipidomics analysis, chromatographic separation was achieved using a Waters Acquity UPLC CSH C18 (100 mm×2.1 mm i.d.; 1.7 μm) column injecting 2 μL. […] The column was equilibrated for 2 min at 15% B. The flow rate was set to 250 μL/min. The column temperature was maintained at 65° C. […]

Series [2] is described as follows: Mouse body weight / tolerability during treatment regimens. It is filed as in vivo. As for the experimental part:
as §1

Series [3] concerns p-4EBP1 and EGR1 expression in PDOX. Kind of series: IHC of time-matched PDOX from brains of treated mice. It is filed as in vivo. Conditions: PDOX after final dose, vs vehicle-treated PDOX. As for the experimental part: To determine whether mechanisms identified in vitro extend to the in vivo orthotopic model, time-matched PDOX were isolated from the brains of BAY-treated mice after the final dose of BAY was administered. […] An infrequent EGR1^+ subpopulation of tumor cells was also detected, which varied in the levels of nuclear EGR1 expression (FIG. 10H).
FFPE tissues were sectioned onto slides and then deparaffinized prior to analysis. Samples were stained with H&E for histological examination. In parallel, sections were blocked in 5% BSA (anti-Ki67, anti-4E-BP1 Thr37/46, anti-DHODH) or 5% NGS (anti-EGR1) and stained with primary antibody at 4° C. overnight. Rabbit anti-Ki67 (Thermo Fisher Scientific; Catalogue #RM-9106-S0) was diluted 1:100, rabbit anti-EGR1 (Cell Signaling Technologies; catalogue #4145) was diluted 1:200, rabbit anti-4E-BP1 Thr37/46 (Cell Signaling Technologies; catalogue #2855) was diluted 1:1000, and rabbit anti-DHODH (Proteintech 14877-1-AP) was diluted 1:200. Anti-rabbit HRP-conjugated secondary antibodies (Abcam; Catalogue #ab214880) were used with DAB for development (Vector Laboratories; Catalogue #SK-4100). All slides were scanned using Image Scope (Aperio).

Setting [4] is: flank tumor tissue of BAY-treated mice.

With `CCn1c(CO)nn(-c2cc(O[C@@H](C)C(F)(F)F)c(C(=O)Nc3c(F)cccc3Cl)cc2F)c1=O` [BAY2402234], in the series on SU_MB002 PDOX, the overall survival entry is “increased overall survival” and the tumor burden result is on record as “reduced tumor burden”. Besides, in series [1] (setting [4]), the “Glutamine normalized peak intensity (Area)” value was 55492788 and 50587148 and 68843176 and 56207472; the “N-Carbamoyl aspartic acid normalized peak intensity (Area)” value was 385157056 and 380028608 and 450759360 and 384681824; the “Orotic acid normalized peak intensity (Area)” value was 33617724 and 35906864 and 46970420 and 34348420; the “UDP-GluNAc normalized peak intensity (Area)” value was 2589539 and 2049874 and 3781049 and 10999488. In series [1] (setting [4]), the “UTP normalized peak intensity (Area)” value was 4036 and 1148 and 5307 and 1474; the “Uridine 5′-diphosphate (UDP) normalized peak intensity (Area)” value is 5654 and 1891 and 15124 and 5023; the “Uridine 5′-monophosphate normalized peak intensity (Area)” value was 17895140 and 14218088 and 25187528 and 9202930; the “Uridine normalized peak intensity (Area)” value is 1736921 and 2207031 and 3920911 and 1886173. Also, in series [1] (setting [4]), the “dihydroorotic acid normalized peak intensity (Area)” value was 119216720 and 62149264 and 89191448 and 46399468. In addition, the “BAY-2402234 normalized peak intensity (Area)” value in series [1] is 249608 and 266857 and 361684 and 146195. Also, the “tolerability over the entire treatment period” value in series [2] (5 mg/kg) was “well-tolerated”. Moreover, the body weight result in series [2] (R2, after the 10 mg/kg doses) is on record as “marginal, temporary weight loss”. Besides, in series [3], the “EGR1 expression (IHC)” value is given as “induced EGR1 expression” and the “p-4EBP1 expression (IHC)” value is listed as “decreased p-4EBP1 expression”.
